The record followed here is patent US10793531B2, “Triazole derivatives and their use as PDE4 activators” (MIRONID LIMITED, priority 2015, dated 2020).

One test deals with T1, full-length human PDE4B1 (Homo sapiens, UniProt Q07343).
T1 construct: stably expressed the full-length human PDE4D5, PDE4A4 and PDE4B1 long isoforms; made in house; cytosol fraction of the lysate
As to the kind of experiment: PDE4 radio-assay, PDE4B1 long form activation (Experiment 1). The test is classed as biochemical. As to conditions: n ≥ 2. The method, then: (§1) One suitable method of detecting whether or not a compound is capable of serving as an activator of a PDE4 long form is using a two-step radio-assay procedure described in Experiment 1. In summary, the method involves incubating a PDE4 long form with a test small molecule activator, together with [^3H]-labelled cAMP to assess alterations in the breakdown of cAMP to the 5′-adenosine monophosphate (5′-AMP) product. A sample of the reaction mixture from such an incubation is subsequently treated with snake venom 5′-nucleotidase to allow conversion of the nucleotide [^3H]-labelled 5′-AMP to the uncharged nucleoside [^3H]-labelled adenosine, which can be separated and quantified to assess PDE4 activity and the effect of the test compound (Thompson, W. J. and Appleman, M. M. Biochemistry 10: 311-316, 1971, with some modifications as described in: Marchmont, R. J. and Houslay, M. D. Biochem J. 187: 381-92, 1980).
(§2) HEK 293 cells were transfected with pDEST™ PDE4 expression vectors using Lipofectamine LTX/Plus reagent (Invitrogen) as outlined by the manufacturer and clonal isolates expanded to obtain cell lines that stably expressed the full-length human PDE4D5, PDE4A4 and PDE4B1 long isoforms and the full length human PDE4B2 short isoform. These were called the HEK-PDE4D5, HEK-PDE4A4, HEK-PDE4B1 and HEK-PDE4B2 cell lines, respectively.
(§3) HEK-PDE4D5 cells were seeded out in 100 mm plates and incubated at 37° C. in an atmosphere of 5% CO2, 95% air. Cell lysates were prepared using KHEM buffer [50 mM KCl, 10 mM EGTA, 50 mM HEPES (pH 7.2), 1.92 mM MgCl2].
(§4) To prepare the cell lysates, the 100 mm plates containing the cells were placed on ice and washed with ice-cold PBS (phosphate buffered saline, pH 7.4). KHEM buffer (500 μl) was added to the cells. Cells were then scraped off the plate and triturated using a needle (BD Microlance™ 0.8, 40 mm). The lysed cells were then centrifuged at 2000 rpm for 10 minutes to remove cell debris and the supernatant (cell lysate containing recombinant PDE4D5) was transferred to a fresh tube and kept on ice.
(§5) The cell lysate containing recombinant PDE4D5 was transferred into a centrifuge tube and placed into an ultracentrifuge (BECKMAN COULTER) and spun at high speed (100,000 g) for 30 minutes at 4° C. The cytosol fraction was then collected and its protein amount determined using a BCA protein assay.
(§6) PDE assays were performed using a final concentration of 10 mM Tris/5 mM MgCl2 and 1 μM [3H]-cAMP (Perkin Elmer) plus PDE4D5 cell lysate cytosol fraction, containing over-expressed PDE4D5, with and without test compound. Incubations were performed at 30° C. for 5 minutes. The samples were then placed in a boiling water bath for 2 minutes to denature the PDE enzyme, and returned to ice. Samples were allowed to cool for 1.0 min after which snake venom 5′-nucleotidase (25 μl, 1 mg/ml; Sigma) was added. The tubes were vortexed and incubated in a water bath at 30° C. for 10 minutes, to attain conversion of [3H]-5′-AMP to [3H]-adenosine, and then placed on ice. Dowex ion exchange resin (Sigma) prepared as a 1:1 Dowex:water stock was thoroughly re-suspended and diluted 2:1 with ethanol. The resulting Dowex suspension (0.4 ml) was added to each tube. Tubes were vortexed to mix and then incubated on ice for at least 15 minutes before a final vortex. […] Tubes were vortexed thoroughly to mix and the recovered [3H]-adenosine was quantified by measuring counts over 1 minute in a scintillation counter.

The target of another test is T2, full-length human PDE4A4 (Homo sapiens, UniProt P27815).
T2 construct: stably expressed the full-length human PDE4D5, PDE4A4 and PDE4B1 long isoforms; made in house; cytosol fraction of the lysate
T2 sequence (P27815 whole entry, canonical isoform): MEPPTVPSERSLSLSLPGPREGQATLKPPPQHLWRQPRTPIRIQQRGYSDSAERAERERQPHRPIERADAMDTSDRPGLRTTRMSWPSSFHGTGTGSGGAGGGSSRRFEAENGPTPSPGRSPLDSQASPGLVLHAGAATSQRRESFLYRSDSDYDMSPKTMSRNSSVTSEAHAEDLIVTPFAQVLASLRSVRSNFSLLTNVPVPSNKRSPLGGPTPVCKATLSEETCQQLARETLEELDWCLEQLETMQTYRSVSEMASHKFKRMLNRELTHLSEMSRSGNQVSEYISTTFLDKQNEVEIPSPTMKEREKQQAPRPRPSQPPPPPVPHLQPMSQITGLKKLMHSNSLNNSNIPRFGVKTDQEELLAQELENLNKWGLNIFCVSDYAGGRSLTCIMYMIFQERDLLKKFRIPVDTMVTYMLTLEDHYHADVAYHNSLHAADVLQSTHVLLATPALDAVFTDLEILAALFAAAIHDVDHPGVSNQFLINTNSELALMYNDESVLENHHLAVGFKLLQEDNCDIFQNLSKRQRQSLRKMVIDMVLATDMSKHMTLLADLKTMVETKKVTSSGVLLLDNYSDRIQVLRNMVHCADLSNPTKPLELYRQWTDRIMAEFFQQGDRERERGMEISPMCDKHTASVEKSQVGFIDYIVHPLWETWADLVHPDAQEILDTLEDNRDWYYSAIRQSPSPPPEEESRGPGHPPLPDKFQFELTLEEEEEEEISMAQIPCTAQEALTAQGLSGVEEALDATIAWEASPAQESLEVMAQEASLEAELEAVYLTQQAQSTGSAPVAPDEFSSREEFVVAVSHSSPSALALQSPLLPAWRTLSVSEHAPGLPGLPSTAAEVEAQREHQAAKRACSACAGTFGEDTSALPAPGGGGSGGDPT
As to the kind of experiment: PDE4 radio-assay, PDE4A4 long form activation (Experiment 1). The test is classed as biochemical. As to conditions: n ≥ 2. The method, then: as §1, §2, §3, §4, §5, §6

For test [1], the system named is androgen-insensitive (AI) LNCaP human prostate cancer cells. In words: Xcelligence proliferation assay, androgen-insensitive LNCaP cells (Experiment 5). As to conditions: normalised cell index at 72 hours; FIG. 10. The test is classed as cell-based. As for the experimental part:
In this study, the potential utility of PDE4 long form activators in the treatment of prostate cancer was studied using the LNCaP human prostate cancer cell line. The experiments were carried out according to the method described by Henderson et al. (Henderson, D. J. P., Byrne, A., Dulla, K., Jenster, G., Hoffmann, R., Baillie, G. S., Houslay, M. D. Br. J. Cancer 110: 1278-1287, 2014).
Androgen-sensitive (AS) LNCaP cells were maintained in RPMI1640 supplemented with 10% FBS (Seralabs), 2 mM L-glutamine and 1,000 U penicillin-streptomycin. LNCaP androgen-insensitive (AI) cells were generated in-house by culturing the LNCaP-AS cells in RPMI1640 supplemented with 10% charcoal stripped FBS, 2 mM L-glutamine and 1,000 U penicillin-streptomycin for a minimum of four weeks. All tissue culture reagents were, from Life Technologies.
Cell proliferation is measured as a function of changing electrical impedance. Values are represented by cell index number, a dimensionless unit of measurement representing the cell status, which increases as cells adhere to 96-well electrode plates and divide. […]
Cell indices were measured every 10 minutes for up to 100 hours, analysed using RICA software and normalised to the cell index of vehicle-treated cells (n=3).

The target in another test is T3, full-length human PDE4D5 (Homo sapiens, UniProt Q08499).
T3 construct: stably expressed the full-length human PDE4D5, PDE4A4 and PDE4B1 long isoforms; made in house; cytosol fraction of the lysate
T3 sequence (Q08499 1-745 isoform Q08499-6): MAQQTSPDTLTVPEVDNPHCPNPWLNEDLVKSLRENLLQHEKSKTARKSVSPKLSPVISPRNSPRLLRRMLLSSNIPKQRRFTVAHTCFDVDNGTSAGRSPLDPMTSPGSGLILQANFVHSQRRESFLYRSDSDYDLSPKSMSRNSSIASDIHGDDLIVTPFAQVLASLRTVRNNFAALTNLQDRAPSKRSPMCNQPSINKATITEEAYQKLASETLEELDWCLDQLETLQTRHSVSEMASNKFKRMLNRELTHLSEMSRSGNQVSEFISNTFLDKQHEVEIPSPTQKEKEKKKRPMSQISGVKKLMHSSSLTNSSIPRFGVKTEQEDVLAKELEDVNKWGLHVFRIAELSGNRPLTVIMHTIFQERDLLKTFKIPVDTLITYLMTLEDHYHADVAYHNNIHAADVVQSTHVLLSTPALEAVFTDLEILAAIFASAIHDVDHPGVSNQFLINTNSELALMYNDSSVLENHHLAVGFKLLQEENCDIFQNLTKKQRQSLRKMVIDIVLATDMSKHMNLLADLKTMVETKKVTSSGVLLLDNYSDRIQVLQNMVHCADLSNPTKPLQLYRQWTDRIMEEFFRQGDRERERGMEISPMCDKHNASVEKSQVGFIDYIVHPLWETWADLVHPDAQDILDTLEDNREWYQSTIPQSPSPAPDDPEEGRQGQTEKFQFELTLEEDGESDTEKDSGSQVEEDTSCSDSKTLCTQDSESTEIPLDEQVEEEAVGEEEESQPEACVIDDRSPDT
As to the kind of experiment: PDE4 radio-assay, PDE4D5 long form activation (Experiment 1). The test is classed as biochemical. As to conditions: n ≥ 2, read-out: PDE4D5 activity (mean % increase in counts over basal activity without added compound). The method, then:
as §1, §2, §3, §4, §5
PDE assays were performed using a final concentration of 10 mM Tris/5 mM MgCl2 and 1 μM [3H]-cAMP (Perkin Elmer) plus PDE4D5 cell lysate cytosol fraction, containing over-expressed PDE4D5, with and without test compound. Incubations were performed at 30° C. for 5 minutes. The samples were then placed in a boiling water bath for 2 minutes to denature the PDE enzyme, and returned to ice. Samples were allowed to cool for 1.0 min after which snake venom 5′-nucleotidase (25 μl, 1 mg/ml; Sigma) was added. The tubes were vortexed and incubated in a water bath at 30° C. for 10 minutes, to attain conversion of [3H]-5′-AMP to [3H]-adenosine, and then placed on ice. Dowex ion exchange resin (Sigma) prepared as a 1:1 Dowex:water stock was thoroughly re-suspended and diluted 2:1 with ethanol. The resulting Dowex suspension (0.4 ml) was added to each tube. Tubes were vortexed to mix and then incubated on ice for at least 15 minutes before a final vortex. The Dowex resin was pelleted by centrifugation at 13,000 g at 4° C. for 3 minutes and 150 μl of the supernatant was removed to an Eppendorf tube containing 1 ml of ScintiSafe3 scintillation fluid (Fisher). Tubes were vortexed thoroughly to mix and the recovered [3H]-adenosine was quantified by measuring counts over 1 minute in a scintillation counter.

T1 sequence (Q07343 whole entry, canonical isoform): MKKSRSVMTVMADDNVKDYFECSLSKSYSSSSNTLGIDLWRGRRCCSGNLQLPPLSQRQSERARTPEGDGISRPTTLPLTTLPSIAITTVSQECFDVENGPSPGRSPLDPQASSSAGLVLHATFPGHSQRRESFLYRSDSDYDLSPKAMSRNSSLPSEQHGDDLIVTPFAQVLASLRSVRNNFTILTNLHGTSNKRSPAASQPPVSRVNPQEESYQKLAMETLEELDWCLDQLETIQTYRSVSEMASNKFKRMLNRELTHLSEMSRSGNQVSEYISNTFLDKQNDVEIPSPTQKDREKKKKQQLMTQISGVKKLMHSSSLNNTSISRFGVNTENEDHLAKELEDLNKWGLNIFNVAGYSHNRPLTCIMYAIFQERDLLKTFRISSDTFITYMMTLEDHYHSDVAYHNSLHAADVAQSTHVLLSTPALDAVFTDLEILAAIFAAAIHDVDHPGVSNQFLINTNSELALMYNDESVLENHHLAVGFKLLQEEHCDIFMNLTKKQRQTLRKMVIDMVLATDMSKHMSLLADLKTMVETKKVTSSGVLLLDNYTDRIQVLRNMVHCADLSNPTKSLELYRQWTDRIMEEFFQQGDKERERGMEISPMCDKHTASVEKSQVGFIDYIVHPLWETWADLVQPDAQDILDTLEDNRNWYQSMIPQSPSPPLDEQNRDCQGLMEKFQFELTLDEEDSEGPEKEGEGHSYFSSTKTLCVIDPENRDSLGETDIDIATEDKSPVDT

For the compound `CCc1nc(-c2ccc(Cl)c(F)c2)nn1CC(=O)NCc1cccc(F)c1` [Example A, N-(3-Fluorobenzyl)-2-[3-(4-chloro-3-fluorophenyl)-5-ethyl-1H-1,2,4-triazol-1-yl]acetamide], the “PDE4B1 activity (mean % increase in counts over basal activity without added compound)” value at full-length human PDE4B1 (1 μM compound) is −2.4%; on full-length human PDE4B1 (3 μM compound) it was 4.9%; on full-length human PDE4B1 (10 μM compound), 22.0%; on full-length human PDE4B1 (30 μM compound), 61.3%; on full-length human PDE4B1 (50 μM compound), 92.9%. For the same compound, the “PDE4A4 activity (mean % increase in counts over basal activity without added compound)” value is on record as 1.1% at full-length human PDE4A4 (1 μM compound); 2.7% on full-length human PDE4A4 (3 μM compound); 10.4% on full-length human PDE4A4 (10 μM compound); 38.5% at full-length human PDE4A4 (30 μM compound); 65.4% at full-length human PDE4A4 (50 μM compound). In test [1], the “proliferation of androgen-insensitive (AI) LNCaP cells (in words)” value is given as “inhibits the proliferation”. For the same compound, at full-length human PDE4D5 (1 μM compound), the activation at 1 µM is -3.6%. On full-length human PDE4D5 (3 μM compound), the activation at 3 µM is -0.2%. On full-length human PDE4D5 (10 μM compound), the activation at 10 µM was 12.5%. The activation at 30 µM on full-length human PDE4D5 (30 μM compound) came out at 39.7%. In addition, the activation at 50 µM at full-length human PDE4D5 (50 μM compound) came out at 91.9%.
